# Like-named read-outs stand apart in the source and are kept apart here.
# Columns and labels:
# E. Coli ATCC 25922 = assay: Minimum Inhibitory Concentration (MIC), modified microbroth dilution; assay type: cell-based; conditions: for MIC50: Escherichia coli, read-out: MIC50 E. coli
# HepG2, HB-8065 = assay: Cytotoxicity colorimetric (tetrazolium) assay; assay type: cell-based, human; conditions: HepG2 cells; one hour with compound in serum-free media
# Description: (§1) Cytotoxicity of the compounds was evaluated in a colorimetric assay using a transformed human liver cell line (HepG2, HB-8065) and an embryonic mouse cell line (NIH/3T3 cells, CRL-1658). This assay measures the bioreduction of a novel tetrazolium compound to a soluble formazan product by viable cells. HepG2 cells were seeded in 96 well plates at 2×10^4 cells/well in MEM medium with 10% fetal bovine serum (FBS) 24 hours prior to use. NIH/3T3 cells were seeded in 96 well plates at 2×10^4 cells/well in DMEM medium with 10% bovine calf serum (BCS) 24 hours prior to use. Cell monolayers were rinsed in serum-free media and incubated for one hour with compounds in serum-free media. After incubation, the media is replaced with serum supplemented media and live cells were measured using the Cell Titer 96 Aqueous […] Assay kit (Promega, Madison, Wis.). EC50 values were determined using a four parameter logistic equation: Y=Bottom+(Top-Bottom)/(1+10̂((LogEC50−X)*HillSlope)).
# (§2) Actual results from a representative cytotoxicity assay are shown below in Table 2. Data is expressed as EC50 in μg/mL.
# [1] = system: Pseudomonas aeruginosa ATCC 10145; assay: Minimum Inhibitory Concentration (MIC), modified microbroth dilution; assay type: cell-based; conditions: for MIC50: Pseudomonas aeruginosa, read-out: MIC50 P. Aeruginosa
# [2] = system: Klebsiella pneumoniae ATCC 13883; assay: as above; assay type: cell-based; conditions: for MIC50: Klebsiella pneumoniae, read-out: MIC50 K. Pnuemnoiae
# NIH/3T3 cells, CRL-1658 = assay: Cytotoxicity colorimetric (tetrazolium) assay; assay type: cell-based, mouse; conditions: NIH/3T3 cells; one hour with compound in serum-free media
# Description: as §1, §2
# [3] = system: Enterococcus faecalis ATCC 29212; assay: Minimum Inhibitory Concentration (MIC), modified microbroth dilution; assay type: cell-based; conditions: for MIC50: Enterococcus faecalis, read-out: MIC50 E. faecalis
# [4] = system: Staphylococcus aureus ATCC 27660; assay: as above; assay type: cell-based; conditions: for MIC50: Staphylococcus aureus, read-out: MIC50 S. aureus
# [5] = Cytotoxicity colorimetric (tetrazolium) assay; assay type: cell-based, human; conditions: human, HepG2 cells (HB-8065), HepG2 cells; one hour with compound in serum-free media
# Description: as §1, §2
# [6] = Cytotoxicity colorimetric (tetrazolium) assay; assay type: cell-based, mouse; conditions: mouse, NIH/3T3 cells (CRL-1658), NIH/3T3 cells; one hour with compound in serum-free media
# Description: as §1, §2
# [7] = E. coli (25922), overnight incubation (18 hours)
# [8] = P. aeruginosa (10145), overnight incubation (18 hours)
# [9] = K. pneumoniae (13883), overnight incubation (18 hours)
# [10] = E. faecalis (29212), overnight incubation (18 hours)
# [11] = S. aureus (27660), overnight incubation (18 hours)
MIC50 E. coli (E. Coli ATCC 25922; [7]) [mg/L],"MIC50 P. Aeruginosa [1, 8] [mg/L]","MIC50 K. Pnuemnoiae [2, 9] [mg/L]","MIC50 E. faecalis [3, 10] [mg/L]","MIC50 S. aureus [4, 11] [mg/L]",SMILES,"EC50 HepG2 (cytotoxicity) (HepG2, HB-8065) [mg/L]","EC50 NIH 3T3 (cytotoxicity) (NIH/3T3 cells, CRL-1658) [mg/L]",also measured
>100,>100,>100,>100,6.25,NCCCNC(=O)c1cc(C(=O)NCCCN)cc(-c2ccc3sc4ccc(-c5cc(C(=O)NCCCN)cc(C(=O)NCCCN)c5)cc4c3c2)c1 [Compound 171],236,46.5,
3.13,12.5,3.13,1.56,1.56,NCCC#Cc1cc(-c2cc(OCCCN)cc(-c3cc(C#CCCN)cc(C(F)(F)F)c3)c2)cc(C(F)(F)F)c1 [Compound 122],,14.5,
3.13,12.5,3.13,1.56,0.78,N=C(N)NCCCc1cccc(-c2cc(-c3cccc(CCCNC(=N)N)c3)cc(C(F)(F)F)c2)c1 [Compound 114],60.6,83.5,
6.25,6.25,6.25,1.56,1.56,N=C(N)NCC#Cc1cc(C#CCNC(=N)N)cc(-c2cc(-c3cc(C#CCNC(=N)N)cc(C#CCNC(=N)N)c3)cc(C(F)(F)F)c2)c1 [Compound 126],,59.7,
1.56,6.25,6.25,6.25,0.78,NCCc1cccc(-c2ccc3c(c2)C(=O)c2cc(-c4cccc(CCN)c4)cc(-c4cccc(CCN)c4)c2CC3)c1 [Compound 154],85.4,53.4,
12.5,12.5,25,12.5,12.5,NCC#Cc1cc(C#CCN)cc(-c2cc(-c3cc(C#CCN)cc(C#CCN)c3)cc(C(F)(F)F)c2)c1 [Compound 125],,26.1,
,,,,,NCCc1cccc(-c2coc(-c3cccc(-c4nc(-c5cccc(CCN)c5)co4)c3)n2)c1 [Compound 132],,,"MIC50 (E. Coli ATCC 25922; ATCC25922, E. coli (25922), overnight incubation (18 hours)): 12.5 mg/L; EC50 at 1 h [5]: 50.1 mg/L; MIC50 ([1]; ATCC10145, P. aeruginosa (10145), overnight incubation (18 hours)): 25 mg/L; MIC50 ([2]; ATCC13883, K. pneumoniae (13883), overnight incubation (18 hours)): 25 mg/L; EC50 at 1 h [6]: 23.5 mg/L; MIC50 ([3]; ATCC29212, E. faecalis (29212), overnight incubation (18 hours)): 12.5 mg/L; MIC50 ([4]; ATCC27660, S. aureus (27660), overnight incubation (18 hours)): 12.5 mg/L"
,,,,,NCCCN1c2ccccc2Sc2ccccc21 [Compound 100],,,"MIC50 (E. Coli ATCC 25922; ATCC25922, 18 h): 100 mg/L; EC50 at 1 h [5]: 18 mg/L; MIC50 ([1]; ATCC10145, 18 h): 100 mg/L; MIC50 ([2]; ATCC13883, 18 h): 100 mg/L; EC50 at 1 h [6]: 13 mg/L; MIC50 ([3]; ATCC29212, 18 h): 100 mg/L; MIC50 ([4]; ATCC27660, 18 h): 100 mg/L"

SMILES,MIC50 E. coli (E. Coli ATCC 25922; [7]) [mg/L],"MIC50 P. Aeruginosa [1, 8] [mg/L]","MIC50 K. Pnuemnoiae [2, 9] [mg/L]","MIC50 E. faecalis [3, 10] [mg/L]","MIC50 S. aureus [4, 11] [mg/L]","EC50 HepG2 (cytotoxicity) (HepG2, HB-8065) [mg/L]","EC50 NIH 3T3 (cytotoxicity) (NIH/3T3 cells, CRL-1658) [mg/L]",also measured
NCCN(CCN)Cc1cccc(-c2ccc3[nH]c4ccc(-c5cccc(CN(CCN)CCN)c5)cc4c3c2)c1 [Compound 179],1.56,25,>50,>50,1.56,615,179,
O=C(Nc1ccc(-c2ccnc(N3CCNCC3)c2)cc1F)Nc1ccc(-c2ccnc(N3CCNCC3)c2)cc1F [Compound 142],12.5,25,25,,100,105,,

# Source: patent US20140308317A1, “Polymeric Compounds And Methods Of Making And Using The Same” (CELLCEUTIX CORPORATION, priority 2012, published 2014)
